From ChEMBL document CHEMBL1201862, “PubChem BioAssay data set” (2004)
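Where inhibition never reached the appropriate level, the endpoint shown equals the highest concentration tested. Otherwise, values were interpolated linearly from a five-concentration, 48-hour dose response in 96-well plates. GI50 marks 50% less growth.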 The source made the active and inactive calls. No stated cut-off is given here; in the data, active = GI50 up to about 1.1 µM and inactive = higher.

Legend:
Test in all cases: growth of human tumour cells (NCI), 48 h
[1] = tested on: ACHN
[2] = tested on: BT-549
[3] = tested on: EKVX
[4] = tested on: HCC 2998
[5] = tested on: HCT-116
[6] = tested on: HCT-15
[7] = tested on: K562
[8] = tested on: KM12
[9] = tested on: M14
[10] = tested on: MOLT-4
[11] = tested on: NCI-H522
[12] = tested on: NCI/ADR-RES
[13] = tested on: OVCAR-5
[14] = tested on: PC-3
[15] = tested on: RPMI-8226
[16] = tested on: RXF 393
[17] = tested on: SK-OV-3
[18] = tested on: SNB-75
[19] = tested on: SR
[20] = tested on: T47D

How did the GI50 [1] turn out when `CCOC(=O)NC(Nc1ccc([N+](=O)[O-])cc1)(C(F)(F)F)C(F)(F)F` was run?
The GI50 was > 100 µM (inactive).

And the GI50 [2]?
The GI50 was 96.2 µM (inactive).

What about the GI50 [3] of the same compound?
Its GI50 is 75.5 µM (inactive).

And the GI50 [4]?
Its GI50 is > 100 µM (inactive).

And the GI50 [5]?
Its GI50 is 59.8 µM (inactive).

And the GI50 [6]?
The GI50 was 70.6 µM.

What about the GI50 [7] of the same compound?
The GI50 was 53.8 µM (inactive).

What about the GI50 [8] of the same compound?
The GI50 was 82.2 µM (inactive).

And the GI50 [9]?
The GI50 was 60.4 µM (inactive).

What about the GI50 [10] of the same compound?
The GI50 was 54.2 µM (inactive).

What about the GI50 [11] of the same compound?
Its GI50 is 25.1 µM (inactive).

What about the GI50 [12] of the same compound?
The GI50 was 30.8 µM (inactive).

And the GI50 [13]?
The GI50 was > 100 µM (inactive).

And the GI50 [14]?
Its GI50 is 53.1 µM (inactive).

And the GI50 [15]?
The GI50 was 99.3 µM (inactive).

What about the GI50 [16] of the same compound?
Its GI50 is 12 µM (inactive).

What about the GI50 [17] of the same compound?
Its GI50 is 56.5 µM (inactive).

And the GI50 [18]?
The GI50 was > 100 µM (inactive).

What about the GI50 [19] of the same compound?
Its GI50 is 34.2 µM (inactive).

And the GI50 [20]?
Its GI50 is 58.3 µM (inactive).

What does the source list for `Cc1cc(/N=C/c2ccc(Cl)cc2)n(-c2ccccc2)n1`?
GI50 [1]: 47.2 µM (inactive); GI50 [2]: 31.8 µM (inactive); GI50 [3]: 33 µM (inactive); GI50 [4]: 24.9 µM (inactive); GI50 [5]: 26.2 µM (inactive); GI50 [6]: 19 µM; GI50 [7]: 12.9 µM (inactive); GI50 [8]: 23.4 µM (inactive); GI50 [9]: 48.6 µM (inactive); GI50 [10]: 32.2 µM (inactive); GI50 [11]: 23.1 µM (inactive); GI50 [12]: 40.9 µM (inactive); GI50 [13]: 87.5 µM (inactive); GI50 [14]: 53.8 µM (inactive); GI50 [15]: 24.6 µM (inactive); GI50 [16]: 22.9 µM (inactive); GI50 [17]: 67.9 µM (inactive); GI50 [18]: 32.4 µM (inactive); GI50 [19]: 31 µM (inactive); GI50 [20]: 16.7 µM (inactive)
